Experimental data taken from patent US12391701B2, “Chromene-based compounds, methods and uses thereof” (University of Minho, priority 2019, dated 2025).

Experiments:
[1] = test system: TNBC cell line MDA-MB-231; test: Cell viability assay, MDA-MB-231; type: cell-based; details: Homo sapiens
Caki-2 parental cells = test: BrdU proliferation assay, Caki-2 parental; type: cell-based; details: 24 and 48 hours, IC50 and ½IC50
Hs578t cells = test: Annexin V/PI flow cytometry, Hs578t; type: cell-based, human; details: IC50 concentration; 24 h
Text: In an embodiment, to understand the mechanisms leading to cell death, cells were studied for the induction of apoptosis by flow cytometry. […] Externalization of phosphatidylserine occurs during the early apoptotic events. While annexin V binds to phosphatidylserine, PI stains only cells that have lost their membrane integrity, an experimental procedure which allows the discrimination between viable cells, early apoptotic cells, late apoptotic/necrotic cells or necrotic cells.
In an embodiment, MCF-7, Hs578t and 786-O cells were seeded in 6-well culture plates and allowed to adhere over 18-20 hours in a complete DMEM (for MCF-7 and Hs578t cells) and complete RPMI (for 786-O cells) medium to detect apoptosis via flow cytometry analysis. […] Triplicates were performed in each experiment. Floating and adherent cells were collected and combined by centrifugation. Elimination of the supernatant was followed by addition of 1 mL of Binding Buffer. 8 μL FITC annexin V (556419, BD Pharmingen) and 30 μl of PI (50 μg/mL, P1304MP, Invitrogen) were added to the cell pellet. Samples were incubated in the dark for 15 min at room temperature. A further 200 μL of Binding Buffer was added to each sample. PI signal was measured using FACS LSRII flow cytometer (BD Biosciences®) with 488 nm excitation laser. The annexin V signal was collected through a 488 nm blocking filter, a 550 nm long-pass dichroic with a 525 nm band pass. Signals were captured and FACS Diva was used as the acquisition software. The percentage of cells in each phase was analysed using the FlowJo 7.6 (Tree Star®) software. Three independent biological replicates were performed.

glioma cell line GAMG = test: Cell viability MTS assay, GAMG; type: cell-based; details: Homo sapiens, 72 hours
Description: (§1) In an embodiment, the antiproliferative activity of compounds MC408, MC409, MC421 and MC406 was further determined against glioma cell lines (U87, GAMG and GL18) and acute leukemia cell lines (HL-60, KG-1 and Jurkat). This was done in order to evaluate if the compounds presented an equally interesting anticancer profile in other cancer cell models. Cell viability was determined using the MTS assay, after exposure of the cells to the respective compounds for 72 hours at appropriate concentration ranges to determine the respective IC50 values.
In an embodiment, three human breast cancer cell lines Hs578T, MDA-MB-468 and MCF-7, and a normal breast cell line MCF-10A, were obtained from ATCC (American Type Culture Collection). The cancer cell lines were cultured in Dulbecco's modified Eagle medium, 4.5 g/l glucose (DMEM, Gibco) supplemented with 10% heating inactivated Fetal Bovine Serum (FBS, Gibco) and 1% antibiotic solution (Penicillin-Streptomycin, Gibco). The normal cell line was cultured in Dulbecco's Modified Eagle Medium: Nutrient Mixture F-12 (DMEM/F12, Gibco) supplemented with 5% heating inactivated FBS (Gibco), 1% antibiotic solution (Penicillin-Streptomycin, Gibco), 1% steroid hormone (Hydrocortisone, Sigma-Aldrich), 0.1% peptide hormone (Insulin, Sigma-Aldrich) and 0.01% protein complex (Cholera Toxin, Gibco). Two distinct human acute myeloid leukemia (AML) cell lines, HL-60 (FAB M2) and KG-1 (erythroleukemia-FAB M6), and one human lymphoblastic leukemia (ALL) cell line, Jurkat (T cell type), were also used. These three cell lines were obtained from German Collection of Microorganisms and Cell cultures (DMSZ®, Deutsche Sammlung von Mikroorganismen and Zellkulturen in German). Cells were cultured in RPMI 1640 medium (Biochrom®-Merck Millipore) supplemented with 10% heating inactivated FBS (Biochrom®-Merck Millipore) and 1% antibiotic/antimitotic mixture (Invitrogen®). Three human glioblastoma (GBM) cell line models, two established and commercially available cell lines (U87MG and GAMG, kind gift from Rui M. Reis) and one primary GBM culture (GLIB) were also used. […]

[2] = test system: acute leukemia cell line KG-1; test: Cell viability MTS assay, KG-1; type: cell-based; details: Homo sapiens, 72 hours
Description: as §1
(§2) In an embodiment, three human breast cancer cell lines Hs578T, MDA-MB-468 and MCF-7, and a normal breast cell line MCF-10A, were obtained from ATCC (American Type Culture Collection). The cancer cell lines were cultured in Dulbecco's modified Eagle medium, 4.5 g/l glucose (DMEM, Gibco) supplemented with 10% heating inactivated Fetal Bovine Serum (FBS, Gibco) and 1% antibiotic solution (Penicillin-Streptomycin, Gibco). The normal cell line was cultured in Dulbecco's Modified Eagle Medium: Nutrient Mixture F-12 (DMEM/F12, Gibco) supplemented with 5% heating inactivated FBS (Gibco), 1% antibiotic solution (Penicillin-Streptomycin, Gibco), 1% steroid hormone (Hydrocortisone, Sigma-Aldrich), 0.1% peptide hormone (Insulin, Sigma-Aldrich) and 0.01% protein complex (Cholera Toxin, Gibco). Two distinct human acute myeloid leukemia (AML) cell lines, HL-60 (FAB M2) and KG-1 (erythroleukemia-FAB M6), and one human lymphoblastic leukemia (ALL) cell line, Jurkat (T cell type), were also used. These three cell lines were obtained from German Collection of Microorganisms and Cell cultures (DMSZ®, Deutsche Sammlung von Mikroorganismen and Zellkulturen in German). Cells were cultured in RPMI 1640 medium (Biochrom®-Merck Millipore) supplemented with 10% heating inactivated FBS (Biochrom®-Merck Millipore) and 1% antibiotic/antimitotic mixture (Invitrogen®). Three human glioblastoma (GBM) cell line models, two established and commercially available cell lines (U87MG and GAMG, kind gift from Rui M. Reis) and one primary GBM culture (GLIB) were also used. GBM cells were cultures in DMEM (Biochrom-Merck Millipore), all supplemented with 10% FBS. The Renal cell carcinoma cell lines A498, 786-O, Caki-2 and HK2 were obtained from ATCC. The cancer cell line A498 was cultured in MEM medium (Biochrom®-Merck Millipore), 786-O was cultured in RPMI 1640 medium (Biochrom®-Merck Millipore), Caki-2 was cultured in Mc Coys medium (Biochrom®-Merck Millipore) and HK2 was cultured in RPMI 1640 medium (Biochrom®-Merck Millipore). All the media were supplemented with 10% heat inactivated FBS (Biochrom®-Merck Millipore) and 1% antibiotic/antimitotic mixture (Invitrogen®). All cells were grown in a humidified incubator at 37° C. and 5% CO2. […]

[3] = test system: acute leukemia cell line HL-60; test: Cell viability MTS assay, HL-60; type: cell-based; details: Homo sapiens, 72 hours
Description: as §1, §2

[4] = test system: TNBC cell line MDA-MB-468; test: Cell viability assay (MTS), MDA-MB-468; type: cell-based; details: Homo sapiens, 72 h incubation
Text: In an embodiment, for a comparison study, monomers and respective dimers were selected and further evaluated in Hs578t and MDA-MB-468 breast cell lines. […] These cell lines correspond to the basal-like subtype of breast cancer, included in the known triple negative subtype, since they are negative for Estrogen receptor (ER), progesterone receptor (PR) and Human epidermal growth factor receptor 2 (HER2) molecular markers. The clinical behaviour of these breast cancer subtype is very aggressive and there is still no specific molecular therapy available.
as §2

glioma cell line GL18 = test: Cell viability MTS assay, GL18; type: cell-based; details: Homo sapiens, 72 hours
Description: as §1, §2

glioma cell line U87 = test: Cell viability MTS assay, U87; type: cell-based; details: Homo sapiens, 72 hours
Description: as §1, §2

SMILES	IC50 [1] [nM]	effect on cell proliferation (BrdU) (Caki-2 parental cells)	induction of cell death by apoptosis (annexin V/PI) (Hs578t cells)	IC50 (glioma cell line GAMG) [µM]	IC50 [2] [µM]	IC50 [3] [µM]	IC50 [4] [nM]	IC50 (glioma cell line GL18) [µM]	IC50 (glioma cell line U87) [µM]
COc1cccc2c1Oc1nc(-c3ccccc3)[nH]c1C2 [MC350, 5-methoxy-2-phenyl-3,9-dihydrochromeno[2,3-d]imidazoles]	2520	decrease cell proliferation	–	–	–	–	–	–	–
COc1cccc2c1Oc1nc(-c3ccccc3F)[nH]c1C2C1c2cccc(OC)c2Oc2nc(-c3ccccc3F)[nH]c21 (centres unmarked) [MC369, 2,2′-bis(2-fluorophenyl)-5,5′-dimethoxy-1,1,9,9′-tetrahydro-9,9′-bichromeno[2,3-]imidazoles]	2520	–	–	–	–	–	–	–	–
COc1cccc2c1Oc1nc(-c3ccc(F)cc3)[nH]c1C2C1c2cccc(OC)c2Oc2nc(-c3ccc(F)cc3)[nH]c21 (centres unmarked) [MC406, 2,2′-bis(4-fluorophenyl)-5,5′-dimethoxy-1,1,9,9′-tetrahydro-9,9′-bichromeno[2,3-]imidazoles]	1290	–	induced cell death by apoptosis	0.22	1.01	0.65	320	0.3	0.17
COc1cccc2c1Oc1nc(-c3ccccc3F)[nH]c1C2 [MC407, 2-(2-fluorophenyl)-5-methoxy-3,9-dihydrochromeno[2,3-d]imidazoles]	1650	–	–	–	–	–	–	–	–
COc1cccc2c1Oc1nc(-c3ccc(Br)cc3)[nH]c1C2 [MC408, 2-(4-bromophenyl)-5-methoxy-3,9-dihydrochromeno[2,3-d]imidazoles]	2560	–	inducing cell death by apoptosis (early apoptosis)	–	0.64	0.57	27	1.6	1.85
COc1cccc2c1Oc1nc(-c3ccc(F)cc3)[nH]c1C2 [MC409, 2-(4-fluorophenyl)-5-methoxy-3,9-dihydrochromeno[2,3-d]imidazoles]	2700	–	induced cell death by apoptosis	0.43	1.02	0.65	120	0.6	0.37
COc1cccc2c1Oc1nc(-c3cc(F)cc(F)c3O)[nH]c1C2 [MC410, 2,4-difluoro-6-(5-methoxy-3,9-dihydrochromeno[2,3-d]imidazol-2-yl)phenol]	> 30000	–	–	–	–	–	–	–	–
COc1ccccc1-c1nc2c([nH]1)Cc1cccc(OC)c1O2 [MC411, 5-methoxy-2-(2-methoxyphenyl)-3,9-dihydrochromeno[2,3-]imidazoles]	1780	–	–	–	–	–	–	–	–
COc1cccc2c1Oc1nc(-c3ccc(O)cc3)[nH]c1C2 [MC413, 4-(5-methoxy-3,9-dihydrochromeno[2,3-d]imidazol-2-yl)phenol]	630	decrease cell proliferation	–	–	–	–	–	–	–
CCOc1ccc(-c2nc3c([nH]2)Cc2cccc(OC)c2O3)cc1 [MC415, 2-(4-ethoxyphenyl)-5-methoxy-3,9-dihydrochromeno[2,3-d]imidazoles]	1420	–	–	–	–	–	–	–	–
COc1cccc2c1Oc1nc(-c3ccc(Br)cc3)[nH]c1C2C1c2cccc(OC)c2Oc2nc(-c3ccc(Br)cc3)[nH]c21 (centres unmarked) [MC421, 2,2′-bis(4-bromophenyl)-5,5′-dimethoxy-1,1,9,9′-tetrahydro-9,9′-bichromeno[2,3-]imidazoles]	2960	decrease cell proliferation	inducing cell death by apoptosis (early apoptosis)	0.079	0.93	0.25	440	0.2	0.034
